Measurements as given in article PMC7217877, “N-AS-triggered SPMs are direct regulators of microglia in a model of Alzheimer’s disease” (Nature Communications, 2020).
Where “and” joins values, the source holds several entries; their conditions need not be identical. Equal entries are not always repeated.

Test system: microglia
Experiment: sphingosine level in primary cells (UPLC)
Type: cell-based, C57BL/6 mice
Conditions: Ab 10mM, replicates
Procedure: To confirm the generation and roles of N-AS in neurons, cells from E18 C57BL/6 mice were prepared as previously described. Cortices were dissected and then dissociated followed by incubation in papain (Worthington) at 37 °C for 15 min. Neurons were plated on poly-L-lysine-coated coverslips with neuronal culture medium, serum-free Neurobasal medium (Gibco) containing 2% B27 supplements (Gibco), 1 mM Glutamax supplement (Gibco), and 100 U ml^−1 streptomycin/ 100 U ml^−1 penicillin (Gibco) at 37 °C in a humidified atmosphere of 5% CO2. Aβ 1–42 (10 μM, 24 h, Invitrogen, 03112) was exposed to neurons and the cells were analyzed for the generation and roles of N-AS. Primary astrocyte cultures were prepared from C57BL/6 mice as described previously. […] The human microglia treated with Aβ 1–42 and/or zileuton was incubated with N-AS (2.5 μM, 2 h, Sigma-Aldrich, 01912), and were analyzed for the generation and roles of N-AS.
To quantify the sphingosine levels, the dried lipid extract was resuspended in 0.2% Igepal CA-630. […] The fluorescent sphingosine was monitored using a model 474 scanning fluorescence detector (Waters). Quantification of the sphingosine was calculated from sphingosine calibration curves using the Waters Millennium software.

Substance: Ab: Aβ 1–42 (Invitrogen, 03112) used to induce an AD environment in cells
- sphingosine (Fig 3f): 0.15 and 0.136 and 0.128 and 0.16 and 0.14 and 0.144
